# Test results as given in PMC7708037, “Targeting OGG1 arrests cancer cell proliferation by inducing replication stress” (Nucleic Acids Research, 2020).
# “Also recorded” adds a separate entry of the source.
# Legend:
# [1] = parameters: method as in PMID 30442810; conditions: cited from earlier work
# CD3+ T-cells = test: CD3 flow cytometry assay (T-cell survival); format: cell-based; parameters: Survival of CD3+ T-cells (flow cytometry): dose or concentration left out as unconfirmed
# Method: The experiment was performed on blood cells from 4 different healthy individuals, with three replicates each. Human peripheral blood mononuclear cells were isolated from fresh buffy coats obtained from healthy donors via the Karolinska Hospital, Stockholm, Sweden. For separation, Ficoll-Paque PLUS density medium (17144003, GE Healthcare) and SepMate separation tubes (85450, StemCell) were used, according to manufacturer's instructions. Briefly, buffy coat diluted 1:1 with PBS and layered on 15 ml of Ficoll-Paque PLUS in the SepMate tubes was spun down for 10 min at […]. The upper layer of the tube content was then poured into new falcon tubes and washed twice with PBS.
# Cells were seeded out in round bottom 96-well plates (83.3925.500, Sarstedt) in RPMI Medium 1640 containing GlutaMAX™ (61870-010, ThermoFisher) supplemented with 10% human AB+ male heat inactivated clotted whole blood serum (H5667, Sigma-Aldrich) and 100 U/ml penicillin/streptomycin (15140122, Gibco). […] Only viable cells were counted, using a TC20™ automated cell counter (Bio-Rad) and Trypan blue (1450021, Bio-Rad). […]
# 10 000 events from an FSC-SSC gate set on the typical living lymphocyte population were collected and the data was compensated and analyzed using FlowJo 10.5.3. […] The number of CD3 positive, viable events was quantified and then divided by the number of Precision Count Beads™ collected per tube. […]
# [2] = tested on: EdU incorporation in A3 cells; test: EdU flow cytometry analysis; format: cell-based, human; conditions: 10 μM
# Method: At the indicated time points, compound/dox treated cells were incubated in medium containing 10 μM 5-ethynyl-2′-deoxyuridine (EdU) (Thermo Fisher, A10044) for 20 min. Next, cells were fixed in cold 70% ethanol overnight. The azide alkyne Huisgen cycloaddition (‘Click reaction’) was carried out according to the Click-iT EdU Imaging Manual (Thermo Fisher) using various fluorescent dyes: Alexa Fluor® 488 azide (Thermo Fisher, A10266), Alexa Fluor® 647 azide (Thermo Fisher, A10277), or TAMRA azide (Thermo Fisher, T10182), depending on assay conditions. Samples were incubated with Alexa Fluor® 488 Mouse anti-H2AX (pS139) (BD Biosciences, 560445) overnight at 4°C and finally stained with DAPI solution [10 μg/ml DAPI (Sigma, D9542), 0.1 mg/ml RNase A (Thermo Fisher, EN0531), 1% BSA in PBS] for 20 min at room temperature. Measurements were done using a Navios Flow Cytometer (Beckman Coulter). Data was analyzed using Kaluza® Flow Analysis Software (Beckman Coulter).
# Supplementary Fig. S7: EdU incorporation in OGG1 perturbed A3 cells. A. Cells harboring the indicated shRNA constructs were treated with doxycycline for 48, 96 and 144 h and pulsed with EdU for 20 minutes before fixation, followed by Alexa-488 conjugation by click chemistry and quantitation by flow cytometry. […] Statistical significance was determined using unpaired, two-sided T-tests (*, […]
smiles,measurement,setting,value
O=C(Nc1ccc(I)cc1)N1CCC(n2c(=O)[nH]c3c(Br)cccc32)CC1 [TH5487],Tolerability in mice,[1],well tolerated
same,Survival of CD3+ T-cells (flow cytometry),"CD3+ T-cells; Dynabeads-activated, 6 days",well tolerated
same,Tolerance by primary T-cells,"CD3+ T-cells; the same dose (10 μM), healthy donors",well tolerated
same,DNA synthesis (EdU incorporation),[2],only detectable after 96 h treatment; also recorded: DNA synthesis was reduced
